Data published in patent publication US9423396B2, “Bodipy structure fluorescence probes for diverse biological applications” (National University of Singapore, priority 2011, dated 2016).

Legend:
[1] = Spectroscopic measurements (absorption, emission, quantum yield, extinction coefficient); assay type: physicochemical
Beta TC-6 cells = experiment: High throughput cell-based screening on acinar, Alpha TC-1 and Beta TC-6 cells; set-up: species or system mouse; conditions: 1 μM, 1 hr to 48 hours, 384-well plates
Method: To discover pancreatic islet selective probes, we expanded the other two types of BODIPY library generated from the original GY (Glucagon Yellow) structure. We started with high throughput cell-based screening using mouse acinar cells composed of exocrine tissue, mouse Alpha TC-1 cells and Beta TC-6 cells composed of endocrine pancreas islets. Those three different types of cells were prepared side by side in 384-well plates and incubated with 1 μM of BODIPY compounds for different incubation times ranging from 1 hr to 48 hours. The fluorescence images were acquired on an automated imaging microscope system ImageXpress Micro™. The fluorescence intensity of the stained cells was analyzed using MetaXpress® image processing software.

[2] = BDNCA library, difference emission minus absorption
[3] = BDNCA library, extinction coefficient; in M-1 cm-1 (unit assumed)
[4] = BDNCA library, fluorescence emission
[5] = absorption maximum, BDNCA library
[6] = difference of emission and absorption maxima
[7] = extinction coefficient, BDNCA library; in M-1 cm-1 (unit assumed)
[8] = fluorescence emission maximum, BDNCA library

Q: Which results are given for `Cc1cc(/C=C/c2ccc(-c3ccccc3)cc2)n2c1C(c1ccc(NC(=O)CCl)cc1)=C1C=CC=[N+]1[B-]2(F)F` [BDNCA-5]?
A: Qunt. Yield ([1]; BDNCA library): 0.09; Abs ([1]; BDNCA library, absorption): 566 nm; Flu-Abs [1, 2]: 23; ε [1, 3]: 39,542; Flu [1, 4]: 589; staining of alpha cells and beta cells compared with acinar cells (Beta TC-6 cells): stained either both alpha cells and beta cells or beta cells only as compared with acinar cells

Q: With `CC1=CC(/C=C/c2cc(C)c(OCc3ccccc3)c(C)c2)=[N+]2C1=C(c1ccc(NC(=O)CCl)cc1)c1cccn1[B-]2(F)F` [BDNCA-16] as the compound, how does the “Qunt. Yield” value ([1]; BDNCA library) read?
A: 0.13

Q: And the Abs ([1]; BDNCA library, absorption)?
A: 562 nm

Q: What about the Flu-Abs [1, 2] of the same compound?
A: 23

Q: What about the ε [1, 3] of the same compound?
A: 55,469

Q: What about the Flu [1, 4] of the same compound?
A: 585

Q: What about the “staining of alpha cells and beta cells compared with acinar cells” value (Beta TC-6 cells) of the same compound?
A: stained either both alpha cells and beta cells or beta cells only as compared with acinar cells

Q: What does the source list for `COc1ccc(-c2ccc(/C=C/C3=[N+]4C(=C(c5ccc(NC(=O)CCl)cc5)c5cccn5[B-]4(F)F)C(C)=C3)o2)cc1Cl` [BDNCA-195]?
A: Qunt. Yield ([1]; BDNCA library): 0.01; Abs ([1]; BDNCA library, absorption): 605 nm; ε [1, 3]: 21,968; Flu [1, 4]: 681

Q: Which Abs [1, 5] does the source give for `CC1=CC(/C=C/c2ncc[nH]2)=[N+]2C1=C(c1ccc(NC(=O)CCl)cc1)c1cccn1[B-]2(F)F` [BDNCA-353] here?
A: 570 nm

Q: What about the Flu-Abs [1, 6] of the same compound?
A: 44

Q: And the ε [1, 7]?
A: 15,652

Q: And the Flu [1, 8]?
A: 614

Q: What about the “Qunt. Yield” value ([1]; quantum yield, BDNCA library) of the same compound?
A: 0.01

Q: Which Abs [1, 5] does the source give for `CCOc1ccccc1/C=C/c1cc(C)c2n1[B-](F)(F)[N+]1=CC=CC1=C2c1ccc(NC(=O)CCl)cc1` [BDNCA-336] here?
A: 562 nm

Q: And the Flu-Abs [1, 6]?
A: 23

Q: What about the ε [1, 7] of the same compound?
A: 63,982

Q: And the Flu [1, 8]?
A: 585

Q: What about the “Qunt. Yield” value ([1]; quantum yield, BDNCA library) of the same compound?
A: 0.12

Q: Which “Qunt. Yield” value ([1]; BDNCA library) does the source give for `COc1cc(OC)c(/C=C/C2=[N+]3C(=C(c4ccc(NC(=O)CCl)cc4)c4cccn4[B-]3(F)F)C(C)=C2)c(OC)c1` [BDNCA-82] here?
A: 0.04

Q: What about the Abs ([1]; BDNCA library, absorption) of the same compound?
A: 582 nm

Q: And the Flu-Abs [1, 2]?
A: 50

Q: What about the ε [1, 3] of the same compound?
A: 18,398

Q: And the Flu [1, 4]?
A: 632

Q: Which Abs [1, 5] does the source give for `CC1=CC(/C=C/c2cccs2)=[N+]2C1=C(c1ccc(NC(=O)CCl)cc1)c1cccn1[B-]2(F)F` [BDNCA-423] here?
A: 569 nm

Q: And the Flu-Abs [1, 6]?
A: 25

Q: And the ε [1, 7]?
A: 61,510

Q: What about the Flu [1, 8] of the same compound?
A: 594

Q: What about the “Qunt. Yield” value ([1]; quantum yield, BDNCA library) of the same compound?
A: 0.10

Q: Which results are given for `COc1ccc(/C=C/c2cc(C)c3n2[B-](F)(F)[N+]2=CC=CC2=C3c2ccc(NC(=O)CCl)cc2)c(Cl)c1OC` [BDNCA-372]?
A: Abs [1, 5]: 565 nm; Flu-Abs [1, 6]: 29; ε [1, 7]: 69,474; Flu [1, 8]: 594; Qunt. Yield ([1]; quantum yield, BDNCA library): 0.13

Q: For `CC1=CC(/C=C/c2c(C)cc(C)cc2C)=[N+]2C1=C(c1ccc(NC(=O)CCl)cc1)c1cccn1[B-]2(F)F` [BDNCA-108], which “Qunt. Yield” value ([1]; BDNCA library) is on record?
A: 0.10

Q: What about the Abs ([1]; BDNCA library, absorption) of the same compound?
A: 549 nm

Q: And the Flu-Abs [1, 2]?
A: 33

Q: And the ε [1, 3]?
A: 39,542

Q: And the Flu [1, 4]?
A: 582

Q: For `COc1cccc(/C=C/C2=[N+]3C(=C(c4ccc(NC(=O)CCl)cc4)c4cccn4[B-]3(F)F)C(C)=C2)c1` [BDNCA-186], which “Qunt. Yield” value ([1]; BDNCA library) is on record?
A: 0.14

Q: And the Abs ([1]; BDNCA library, absorption)?
A: 556 nm

Q: And the Flu-Abs [1, 2]?
A: 20

Q: What about the ε [1, 3] of the same compound?
A: 61,510

Q: And the Flu [1, 4]?
A: 576

Q: For `COc1cccc(/C=C/C2=[N+]3C(=C(c4ccc(NC(=O)CCl)cc4)c4cccn4[B-]3(F)F)C(C)=C2)c1OC` [BDNCA-83], which “Qunt. Yield” value ([1]; BDNCA library) is on record?
A: 0.12

Q: What about the Abs ([1]; BDNCA library, absorption) of the same compound?
A: 557 nm

Q: What about the Flu-Abs [1, 2] of the same compound?
A: 20

Q: What about the ε [1, 3] of the same compound?
A: 40,366

Q: And the Flu [1, 4]?
A: 577

Q: What does the source list for `CC1=CC(/C=C/c2cccc(O)c2Cl)=[N+]2C1=C(c1ccc(NC(=O)CCl)cc1)c1cccn1[B-]2(F)F` [BDNCA-283]?
A: Qunt. Yield ([1]; BDNCA library): 0.05; Abs ([1]; BDNCA library, absorption): 556 nm; Flu-Abs [1, 2]: 18; ε [1, 3]: 27,460; Flu [1, 4]: 574

Q: What does the source list for `CC1=CC(/C=C/c2cccc(B(O)O)c2)=[N+]2C1=C(c1ccc(NC(=O)CCl)cc1)c1cccn1[B-]2(F)F` [BDNCA-404]?
A: Abs [1, 5]: 556 nm; Flu-Abs [1, 6]: 18; ε [1, 7]: 18,124; Flu [1, 8]: 574; Qunt. Yield ([1]; quantum yield, BDNCA library): 0.03

Q: Which results are given for `COc1cc(OC)c(OC)cc1/C=C/C1=[N+]2C(=C(c3ccc(NC(=O)CCl)cc3)c3cccn3[B-]2(F)F)C(C)=C1` [BDNCA-144]?
A: Qunt. Yield ([1]; BDNCA library): weak; Abs ([1]; BDNCA library, absorption): 585 nm; ε [1, 3]: 62,609; Flu [1, 4]: weak

Q: With `COc1cc(/C=C/C2=[N+]3C(=C(c4ccc(NC(=O)CCl)cc4)c4cccn4[B-]3(F)F)C(C)=C2)cc(OC)c1OC(C)=O` [BDNCA-92] as the compound, how does the “Qunt. Yield” value ([1]; BDNCA library) read?
A: 0.01

Q: What about the Abs ([1]; BDNCA library, absorption) of the same compound?
A: 555 nm

Q: What about the Flu-Abs [1, 2] of the same compound?
A: 24

Q: And the ε [1, 3]?
A: 15,652

Q: What about the Flu [1, 4] of the same compound?
A: 579

Q: With `Cc1cc(/C=C/c2ccccc2C(=O)O)n2c1C(c1ccc(NC(=O)CCl)cc1)=C1C=CC=[N+]1[B-]2(F)F` [BDNCA-191] as the compound, how does the “Qunt. Yield” value ([1]; BDNCA library) read?
A: 0.06

Q: And the Abs ([1]; BDNCA library, absorption)?
A: 556 nm

Q: And the Flu-Abs [1, 2]?
A: 18

Q: What about the ε [1, 3] of the same compound?
A: 24,714

Q: What about the Flu [1, 4] of the same compound?
A: 574

Q: Which “Qunt. Yield” value ([1]; BDNCA library) does the source give for `CC1=CC(/C=C/c2cn(C)c3ccccc23)=[N+]2C1=C(c1ccc(NC(=O)CCl)cc1)c1cccn1[B-]2(F)F` [BDNCA-94] here?
A: 0.02

Q: What about the Abs ([1]; BDNCA library, absorption) of the same compound?
A: 548 nm

Q: What about the Flu-Abs [1, 2] of the same compound?
A: 114

Q: What about the ε [1, 3] of the same compound?
A: 23,890

Q: What about the Flu [1, 4] of the same compound?
A: 662
